Tested on: HIF-1
Experiment: Inhibition of HIF-1 mediated HRE transcription activity (pGL3-HRE-luciferase reporter)
Format: cell-based, human
Conditions: HCT116, hypoxic condition 12 hours
Method: To investigate the inhibition of HIF-1 transcription activity by the compound of the present invention, pGL3-basic vector (Promega) using luciferase as a reporter was cloned in multi-cloning site so as for HRE (Hypoxia Responsive Element, 5′-ACGTG-3′) existing in human VEGF gene to be repeated 6 times, resulting in the construction of pGL3-HRE-luciferase vector.
The human rectal cancer cell line HCT116 was seeded in a 48-well cell culture vessel. On the next day, the cells were transfected with 25 ng of pGL3-HRE-luciferase vector and 2.5 ng of Renilla control vector by using Polyfect reagent. After culturing the cells for 24 hours, the medium was replaced, followed by further culture for 4 hours. Then, the cells were treated with the compound prepared in each example at the concentration of 10 μM respectively, followed by culture in hypoxic condition (oxygen 1%, nitrogen 94%, carbon dioxide 5%) for 12 hours. Lysate was obtained by using RIPA buffer, by which hypoxia-induced luciferase activity was measured by using dual-luciferase assay system (Promega). Hypoxia-induced luciferase activity after the treatment of the compound prepared in example 1 or the compound prepared in comparative example 1 was measured by the same manner as described above except that the compound was treated at the concentrations of 0, 1, 3, 5, 10, and 20 μM. HIF-1 inhibition activity of each compound prepared in example 1 and comparative example 1 respectively was compared and the results are shown in Table 2 and FIG. 2.

Compound: COC(=O)c1ccc(O)c(NC(=O)COc2ccc(C34CC5CC(CC(C5)C3)C4)cc2)c1 [Comparative Example 1, 3-[2-(4-adamantan-1-yl-phenoxy)-acetylamino]-4-hydroxy-benzoic acid methyl ester, reference compound]
- HRE transcription activity (%) (1 μM): 119.4%
- HRE transcription activity (%) (3 μM): 121.5%
- HRE transcription activity (%) (5 μM): 98.8%
- HRE transcription activity (%) (10 μM): 75.6%
- HRE transcription activity (%) (20 μM): 43.1%

Source: patent US8940936B2, “Aryloxy phenoxy acrylic compound having HIF-1 inhibition activity, method for preparing same, and pharmaceutical composition containing same as an active ingredient” (Korea Research Institute of Bioscience and Biotechnology, priority 2010, dated 2015)
